Source: US20080167532A1, “ASSESSING CANCER TREATMENT RESPONSIVENESS” (Mayo Foundation for Medical Education and Research, priority 2006, published 2008)
“Also recorded” adds a separate entry of the source.

Assays:
[1] = tested on: DRO and ARO tumor tissues; test: Western blot of DRO and ARO tumor tissues from athymic nude mice; type: in vivo
Protocol: RhoB and p21^WAF1/CIP1 polypeptide expression also was examined in DRO and ARO tumor tissues removed from athymic nude mice following 35 days of treatment with vehicle control (−) or 0.025% RS5444 in the diet. Beta-actin was used as a normalization control to ensure even loading of total polypeptide in all lanes.
Suspensions of 1×10^6/0.1 mL DRO or ARO cells in RPMI medium were injected subcutaneously in one flank of 3 to 4 week old athymic female nude mice. Mice were changed to specialized diets 1 week after tumor implantation and randomly assigned to diets consisting of either 0.025% RS5444 or sham control (Research Diets). Mice weighed between 20-25 grams and consumed on average 4 grams of food per day (1 mg/day of RS5444). Tumors were measured every 3 to 4 days for 35 days with calipers and tumor volumes were calculated by the formula: 0.5236(a×b×c), where a is the shortest diameter, b is the diameter perpendicular to a, and c is the diameter height.
(§1) Cells were collected and lysed in RIPA buffer containing 50 mM Tris, 5 mM EDTA, 150 mM NaCl, 0.1% SDS, 0.5% Deoxycholate, 1% NP40, and protease inhibitor cocktail (Roche) followed by centrifugation. Excised tumor tissues were lysed in 50 mM Tris pH 8.0+1% SDS. Collected supernatants were, analyzed for protein concentration using Pierce's BCA assay, with 25 μg protein loaded per gel lane (Invitrogen) with later transfer to Immobilon-P membranes. The membranes were hybridized with antibodies (Santa Cruz, Cell Signaling, Sigma-Aldrich, St. Louis Mo.) as indicated overnight at 4° C. followed by treatment with species-specific horseradish peroxidase IgG (Jackson labs) for 45 minutes at room temperature. Detection was performed using Supersignal West Pico chemoluminescence kit (Pierce). Quantification of bands was performed in triplicate using Image Quant 5.2 (Molecular Dynamics, Sunnyvale Calif.).

DRO cells [2] = test: Western blot of RhoB, RhoA, p21, cyclin E polypeptides in DRO cells; type: cell-based, human
Protocol: RhoB and p21^WAF1/CIP1 polypeptide expression also was examined in ATC cells to determine the time course of induction of each polypeptide following stimulation with a PPARγ agonist (FIG. 6). […]. Polypeptide lysates were prepared and examined for RhoB, RhoA and β-actin expression. […]; FIG. 6A).
The time course for induction of RhoB and p21^WAF1/CIP1 was determined using Western blotting.
DRO90-1 (DRO) and ARO81 (ARO) cells were derived from primary cultures of human anaplastic thyroid carcinoma tumors that were obtained from Dr. G. J. Juillard (University of California-Los Angeles, Los Angeles, Calif.), and KTC-2 and KTC3 cells were obtained from Dr. Junichi Kurebayashi (Podtcheko et al., J. Clin. Endocrinol. Metab., 88:1889-1896 (2003) and Pushkarev et al., Molecular mechanisms of the Effects of Low Concentrations of Taxol in Anaplastic Thyroid Cancer Cells. Endocrinology: en. 2004-0127 (2004)). Cells were cultured in RPMI 1640 medium (Cellgro, Herndon Va.) supplemented with 10% charcoal-stripped fetal bovine serum (Hyclone), non-essential amino acids, sodium pyruvate, and penicillin-streptomycin-amphotericin B at 37° C. in a humidified atmosphere with 5% CO^2. Charcoal-stripped serum was used to exclude endogenous PPAR ligands contained in serum. For proliferation studies, cells were plated in triplicate in 12-well culture plates at initial concentrations of 2×10^4 cells/well. After overnight incubation, cells were treated with 10 nM RS5444 or DMSO diluent (Sigma) for 6 days with medium, and drug changed every 48 hours. After 6 days, cells were washed with PBS (Cellgro), trypsinized, and counted by Beckman Coulter Counter (Beckman Instruments, Fullerton Calif.). For morphology studies, cells were plated in 12 well plates at initial concentrations of 2.5×10^4 cells/well. Cells were treated with either DMSO or 10 nM RS5444 (24 hours). After treatment, phase images were obtained on an inverted microscope. For real time PCR studies, cells were plated in 60 mm plates at 50% confluence and treated with 10 nM RS5444 for indicated incubation periods. […].
as §1

DRO cells [3] = test: Affymetrix Plus 2.0 array, nucleic acid expression in DRO cells in cell culture; type: cell-based, human; conditions: 10 nM single dose
Protocol: Affymetrix Plus 2.0 arrays were used to identify nucleic acids altered between control vehicle-treated and RS5444-treated ATC cells from cell culture and tumors implanted ectopically into athymic nude mice. Cells in culture were treated with a single dose of 10 nM RS5444 for either 2, 6, or 24 hours. Animals were treated with 0.025% RS5444 after implantation of 1×10^6 DRO cells. Animals were fed a diet including 0.025% RS5444 for 35 days, and tumor volume was measured weekly. Tumor tissues were removed, RNA was isolated, and nucleic acid expression was analyzed. Examples of some nucleic acids, the expression of which was altered in both the animal derived tumors and cells in culture, are presented in Table 1. Some of the nucleic acids regulated by PPARγ in ATC cells (e.g., BMP2, MMP14, ANGPTL4, and ITGA5) are secreted polypeptides (Table 1).

[4] = DRO and ARO tumors, 0.025% in diet for 35 days

`Cc1cc(Oc2ccc3nc(COc4ccc(CC5SC(=O)NC5=O)cc4)n(C)c3c2)cc(C)c1N` (centres unmarked) [RS5444] was tested, and the “RhoB polypeptide in tumors (Western blot)” value ([1]; ATC tumors from mice, 4 weeks of 0.025% in diet) was “elevated”, the “RhoB polypeptide expression in tumors” value [1, 4] was “elevated” and the “cyclin E levels in tumors” value [1, 4] was “down-regulated”. The “p21WAF1/CIP1 polypeptide expression in tumors” value [1, 4] was “elevated”, the “RhoA polypeptide expression (Western blot)” value (DRO cells [2]; 10 nM RS5444) was “no change in RhoA polypeptide expression; also recorded: no change in RhoA polypeptide levels” and the “Cyclin E levels (Western blot)” value (DRO cells [2]; 10 nM, at 24 hours, not at earlier time points) was “down-regulated”. The “RhoB polypeptide level, time course (Western blot)” value (DRO cells [2]; 10 nM, up to 24 hours) was “significantly elevated at 6 hours”, the “p21WAF1/CIP1 polypeptide level, time course (Western blot)” value (DRO cells [2]; 10 nM, up to 24 hours) was “significantly elevated at 6 hours” and the “RhoB polypeptide levels (Western blot)” value (DRO cells [2]; 24 hours after single treatment, 10 nM RS5444, 100 nM rosiglitazone, 1 μM troglitazone) was “induced most strongly; also recorded: induced RhoB polypeptide levels”. For the same molecule, the “RhoB and p21 expression (Western blot)” value (DRO cells [2]; 24 hours, 10 nM RS5444, 1 ng/mL FK-228, 10 μM FTI-277) was “upregulation of both RhoB and p21 expression”, the “Fold change in vitro, ADRB1” value (DRO cells [3]; ADRB1, 2 h) was −3.3 fold and the “Fold change in vitro, ADRB1” value (DRO cells [3]; ADRB1, 24 h) was −2.2 fold. For the same molecule, the “Fold change in vitro, ANGPTL4” value (DRO cells [3]; ANGPTL4, 2 h) was 5.3 fold, the “Fold change in vitro, ANGPTL4” value (DRO cells [3]; ANGPTL4, 6 h) was 4.9 fold and the “Fold change in vitro, ANGPTL4” value (DRO cells [3]; ANGPTL4, 24 h) was 8.4 fold. For the same molecule, the “Fold change in vitro, BMP2” value (DRO cells [3]; BMP2, 24 h) was 2.5 fold, the “Fold change in vitro, HR” value (DRO cells [3]; 2 h) was 2 fold and the “Fold change in vitro, HR” value (DRO cells [3]; 24 h) was 2.3 fold. For the same molecule, the “Fold change in vitro, IL1B” value (DRO cells [3]; IL1B, 24 h) was 14.2 fold, the “Fold change in vitro, ITGA5” value (DRO cells [3]; ITGA5, 24 h) was 2.2 fold and the “Fold change in vitro, LMAN1” value (DRO cells [3]; LMAN1, 6 h) was −2 fold. The “Fold change in vitro, MMP14” value (DRO cells [3]; MMP14, 2 h) was 5.4 fold, the “Fold change in vitro, MMP14” value (DRO cells [3]; MMP14, 24 h) was 16.9 fold and the “Fold change in vitro, RhoB” value (DRO cells [3]; 2 h) was 3.4 fold. The “Fold change in vitro, RhoB” value (DRO cells [3]; 6 h) was 4.1 fold and the “Fold change in vitro, RhoB” value (DRO cells [3]; 24 h) was 2.8 fold.
